Results taken from US20260021061A1, “ARIADNE AND ANALOGS FOR THE TREATMENT OF NEUROLOGICAL AND NEUROMUSCLAR DISORDERS” (priority 2022, published 2026).
pEC50: −log10 of the molar value.

Key:
[1] = target: 5-HT2A (Homo sapiens, UniProt P28223); assay: Calcium flux assay; format: cell-based
Protocol: (§3) Therefore, an orthogonal assay measuring calcium flux was also performed for the 5-HT2 receptors (Klein et al., 2020).

[2] = test system: auxilin knockout (KO) mice; assay: Balance beam test in auxilin KO mouse model of Parkinson's Disease; format: in vivo; conditions: Aux-KO mice 9-12 months; 10 mg/kg intraperitoneal; 15 to 30 minutes after treatment
Text: R-Ariadne ameliorates motor abnormalities in a mouse model of Parkinson's Disease. In the 1978 patent from the Bristol Laboratories, the inventors noted complete remission of Parkinson's symptoms in two patients (Partyka el al., U.S. Pat. No. 4,105,695, 1978). To address and examine these claims via reverse translation in mice, we used a novel model of PD based on auxilin knockout (KO) mice (Vidyadhara et al., 2022). Auxilin is a clathrin uncoating protein that participates in clathrin mediated endocytosis of synaptic vesicles (SV), enabling SV recycling and neurotransmission (Vidyadhara et al., 2022). Loss-of-function mutations in auxilin (DNAJC6/PARK19) cause PD. Auxilin KO mice display cardinal features of PD such as progressive motor deficits, nigral dopaminergic neuronal loss, α-synuclein pathology, and neuroinflammation. 9-12 month old Aux-KO mice were previously shown to respond to L-DOPA treatment, which ameliorated PD-like motor abnormalities (Vidyadhara et al., 2022). […] The balance beam test evaluates fine motor skills such as ability to walk on a raised narrow beam to reach a safety box, measured as a number of runs/minute and time taken to cross the beam (FIGS. 9-10). […]

[3] = test system: patients; conditions: cited from earlier work
[4] = target: T1, 5-HT2C receptor (Homo sapiens, UniProt P28335); assay: Calcium flux assay; format: cell-based; conditions: read-out: Emax relative to 5-HT, calcium flux
T1 sequence (P28335 33-458): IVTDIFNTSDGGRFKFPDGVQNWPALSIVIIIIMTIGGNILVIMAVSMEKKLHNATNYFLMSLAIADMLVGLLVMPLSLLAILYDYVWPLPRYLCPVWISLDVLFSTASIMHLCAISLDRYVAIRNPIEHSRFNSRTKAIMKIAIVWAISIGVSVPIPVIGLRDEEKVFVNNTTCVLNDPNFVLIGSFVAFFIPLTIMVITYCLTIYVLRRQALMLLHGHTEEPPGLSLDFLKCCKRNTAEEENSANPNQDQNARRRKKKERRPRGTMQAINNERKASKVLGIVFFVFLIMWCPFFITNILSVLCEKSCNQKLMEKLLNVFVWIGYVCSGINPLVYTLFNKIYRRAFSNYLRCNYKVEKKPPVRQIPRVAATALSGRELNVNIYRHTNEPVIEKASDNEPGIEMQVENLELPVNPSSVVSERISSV
Protocol: as §3

[5] = test system: rats; conditions: 10 mg/kg, s.c. or i.p.; absence of stimulant-like effects; cited from earlier work
[6] = target: T2, Serotonin (5-Hydroxytryptamine) 5-HT2B (Homo sapiens, UniProt P41595); assay: SafetyScreen44 271700; format: binding; conditions: 10 μM, [3H]Lysergic acid diethylamide (LSD), recombinant
T2 construct: purchased Eurofins-Panlabs (contract screen SafetyScreen44) assay ID 271700
Protocol: (§1) A broad screen of 44 molecular targets (SafetyScreen44, Eurofins-Panlabs) for Ariadne were performed, which includes G protein-coupled receptors, steroid nuclear receptors, ion channels, neurotransmitter transporters, and metabolic and signaling enzymes. Only two molecular targets, 5-HT2A and 5-HT2B receptors, emerged above the positive hit threshold, defined as 50% displacement of standard radioligands by 10 uM concentration of Ariadne (FIG. 1b, and Table 1).
(§2) For species, “H”=human, “R”=rat. Test compound screened at all targets at concentration of 10 μM.

[7] = target: T3, Adenosine A2A (Homo sapiens, UniProt P29274); assay: SafetyScreen44 200610; format: binding; conditions: 10 μM; [3H]CGS-21680; recombinant
T3 construct: Eurofins-Panlabs (contract screen) 200610
Protocol: as §1, §2

[8] = target: T4, Serotonin (5-Hydroxytryptamine) 5-HT1B (Homo sapiens, UniProt P28222); assay: SafetyScreen44 271230; format: binding; conditions: 10 μM; [3H]GR125743; recombinant
T4 construct: purchased Eurofins-Panlabs (contract screen SafetyScreen44) assay ID 271230
Protocol: as §1, §2

[9] = test system: cats; conditions: in comparison to (R)-DOM; cited from earlier work
[10] = target: T5, Adrenergic β1 (Homo sapiens, UniProt P08588); assay: SafetyScreen44 204010; format: binding; conditions: 10 μM; [125I]Cyanopindolol; recombinant
T5 construct: Eurofins-Panlabs (contract screen) 204010
Protocol: as §1, §2

[11] = target: T6, Phosphodiesterase PDE4D2 (Homo sapiens, UniProt Q08499); assay: SafetyScreen44 154420; format: biochemical; conditions: 10 μM; FAM-cAMP; recombinant
T6 construct: Eurofins-Panlabs (contract screen) 154420
Protocol: as §1, §2

[12] = target: T7, Histamine H1 (Homo sapiens, UniProt P35367); assay: SafetyScreen44 239610; format: binding; conditions: 10 μM; [3H]Pyrilamine; recombinant
T7 construct: purchased Eurofins-Panlabs (contract screen SafetyScreen44) assay ID 239610
Protocol: as §1, §2

[13] = target: T8, Dopamine D1 (Homo sapiens, UniProt P21728); assay: SafetyScreen44 219500; format: binding; conditions: 10 μM; [3H]SCH-23390; recombinant
T8 construct: Eurofins-Panlabs (contract screen) 219500
Protocol: as §1, §2

[14] = target: T9, Muscarinic M2 (Homo sapiens, UniProt P08172); assay: SafetyScreen44 252710; format: binding; conditions: 10 μM; [3H]N-Methylscopolamine; recombinant
T9 construct: purchased Eurofins-Panlabs (contract screen SafetyScreen44) assay ID 252710
Protocol: as §1, §2

[15] = target: T10, Cholecystokinin CCK1 (CCKA) (Homo sapiens, UniProt P32238); assay: SafetyScreen44 218030; format: binding; conditions: 10 μM; [125I]CCK-8; recombinant
T10 construct: Eurofins-Panlabs (contract screen) 218030
Protocol: as §1, §2

5-HT2A, sequence (P28223 whole entry): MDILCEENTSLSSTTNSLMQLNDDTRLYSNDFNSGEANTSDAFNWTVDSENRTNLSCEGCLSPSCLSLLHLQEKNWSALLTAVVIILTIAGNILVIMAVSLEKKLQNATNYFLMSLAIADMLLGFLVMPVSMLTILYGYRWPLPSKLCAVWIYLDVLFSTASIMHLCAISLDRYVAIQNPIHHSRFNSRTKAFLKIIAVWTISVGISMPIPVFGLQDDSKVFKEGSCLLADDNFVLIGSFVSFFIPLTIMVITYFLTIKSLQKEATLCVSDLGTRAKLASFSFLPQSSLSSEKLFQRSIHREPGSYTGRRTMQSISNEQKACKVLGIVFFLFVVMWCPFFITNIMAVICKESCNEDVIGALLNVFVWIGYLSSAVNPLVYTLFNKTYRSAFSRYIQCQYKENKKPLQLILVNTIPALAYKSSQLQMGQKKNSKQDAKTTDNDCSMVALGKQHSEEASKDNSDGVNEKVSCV
T2 sequence (P41595 whole entry): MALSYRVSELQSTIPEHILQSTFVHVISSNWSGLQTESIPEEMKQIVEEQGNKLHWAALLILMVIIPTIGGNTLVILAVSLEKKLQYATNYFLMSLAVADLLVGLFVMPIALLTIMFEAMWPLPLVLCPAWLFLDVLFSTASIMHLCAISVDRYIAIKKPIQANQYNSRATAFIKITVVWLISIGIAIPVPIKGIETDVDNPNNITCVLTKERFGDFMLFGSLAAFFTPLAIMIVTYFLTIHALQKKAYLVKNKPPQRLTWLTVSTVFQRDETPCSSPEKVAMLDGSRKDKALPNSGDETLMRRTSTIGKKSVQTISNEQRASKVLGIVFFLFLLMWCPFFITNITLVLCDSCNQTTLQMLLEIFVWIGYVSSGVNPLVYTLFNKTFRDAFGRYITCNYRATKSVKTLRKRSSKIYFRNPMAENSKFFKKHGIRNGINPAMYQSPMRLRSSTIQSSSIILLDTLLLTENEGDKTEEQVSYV
T7 sequence (P35367 whole entry): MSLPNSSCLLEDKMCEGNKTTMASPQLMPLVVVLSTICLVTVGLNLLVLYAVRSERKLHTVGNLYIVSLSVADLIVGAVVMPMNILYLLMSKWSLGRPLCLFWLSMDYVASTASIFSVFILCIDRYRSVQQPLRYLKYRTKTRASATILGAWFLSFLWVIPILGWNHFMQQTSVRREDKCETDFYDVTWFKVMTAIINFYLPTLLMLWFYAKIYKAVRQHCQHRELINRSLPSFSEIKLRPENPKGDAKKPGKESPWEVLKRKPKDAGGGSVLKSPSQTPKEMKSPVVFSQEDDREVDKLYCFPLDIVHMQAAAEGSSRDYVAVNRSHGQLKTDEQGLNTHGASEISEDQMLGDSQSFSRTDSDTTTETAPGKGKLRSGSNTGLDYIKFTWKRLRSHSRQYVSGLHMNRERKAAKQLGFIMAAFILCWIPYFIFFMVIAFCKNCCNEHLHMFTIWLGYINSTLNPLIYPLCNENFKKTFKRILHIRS
T8 sequence (P21728 whole entry): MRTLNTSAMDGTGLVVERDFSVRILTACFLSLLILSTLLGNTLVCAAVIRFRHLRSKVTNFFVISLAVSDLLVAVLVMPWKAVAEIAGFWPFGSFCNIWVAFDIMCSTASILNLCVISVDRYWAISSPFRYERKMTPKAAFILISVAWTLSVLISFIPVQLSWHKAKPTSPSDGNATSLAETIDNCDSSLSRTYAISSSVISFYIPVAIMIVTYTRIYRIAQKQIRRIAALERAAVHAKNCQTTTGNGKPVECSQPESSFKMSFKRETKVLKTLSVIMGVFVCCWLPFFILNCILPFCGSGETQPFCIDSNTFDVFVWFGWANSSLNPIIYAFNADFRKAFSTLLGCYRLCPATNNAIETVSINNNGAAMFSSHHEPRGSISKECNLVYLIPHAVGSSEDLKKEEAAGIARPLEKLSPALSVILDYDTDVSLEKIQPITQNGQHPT
T3 sequence (P29274 whole entry): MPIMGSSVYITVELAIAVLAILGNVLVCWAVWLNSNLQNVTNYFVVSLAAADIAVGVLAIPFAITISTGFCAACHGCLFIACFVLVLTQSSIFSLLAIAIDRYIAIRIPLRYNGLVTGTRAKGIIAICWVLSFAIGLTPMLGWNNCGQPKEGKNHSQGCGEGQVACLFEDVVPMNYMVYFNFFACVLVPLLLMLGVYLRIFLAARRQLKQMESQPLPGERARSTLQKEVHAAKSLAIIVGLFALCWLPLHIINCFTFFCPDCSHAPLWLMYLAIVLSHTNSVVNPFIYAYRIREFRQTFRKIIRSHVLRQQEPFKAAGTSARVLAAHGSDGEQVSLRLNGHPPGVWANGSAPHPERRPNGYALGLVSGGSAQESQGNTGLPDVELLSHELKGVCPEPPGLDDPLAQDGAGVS
T9 sequence (P08172 whole entry): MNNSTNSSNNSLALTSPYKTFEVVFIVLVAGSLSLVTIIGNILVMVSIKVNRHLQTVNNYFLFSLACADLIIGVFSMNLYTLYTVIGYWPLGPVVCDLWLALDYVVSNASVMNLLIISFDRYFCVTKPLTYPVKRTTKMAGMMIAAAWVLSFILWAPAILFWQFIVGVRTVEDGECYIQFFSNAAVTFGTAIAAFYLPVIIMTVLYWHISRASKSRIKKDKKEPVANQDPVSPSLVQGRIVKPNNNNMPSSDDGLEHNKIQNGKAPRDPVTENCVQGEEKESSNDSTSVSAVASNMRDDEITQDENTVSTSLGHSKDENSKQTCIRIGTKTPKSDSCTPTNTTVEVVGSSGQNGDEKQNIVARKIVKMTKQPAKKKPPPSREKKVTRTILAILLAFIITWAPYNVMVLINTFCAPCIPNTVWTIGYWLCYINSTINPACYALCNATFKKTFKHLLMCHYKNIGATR
T6 sequence (Q08499 303-809 limits assumed): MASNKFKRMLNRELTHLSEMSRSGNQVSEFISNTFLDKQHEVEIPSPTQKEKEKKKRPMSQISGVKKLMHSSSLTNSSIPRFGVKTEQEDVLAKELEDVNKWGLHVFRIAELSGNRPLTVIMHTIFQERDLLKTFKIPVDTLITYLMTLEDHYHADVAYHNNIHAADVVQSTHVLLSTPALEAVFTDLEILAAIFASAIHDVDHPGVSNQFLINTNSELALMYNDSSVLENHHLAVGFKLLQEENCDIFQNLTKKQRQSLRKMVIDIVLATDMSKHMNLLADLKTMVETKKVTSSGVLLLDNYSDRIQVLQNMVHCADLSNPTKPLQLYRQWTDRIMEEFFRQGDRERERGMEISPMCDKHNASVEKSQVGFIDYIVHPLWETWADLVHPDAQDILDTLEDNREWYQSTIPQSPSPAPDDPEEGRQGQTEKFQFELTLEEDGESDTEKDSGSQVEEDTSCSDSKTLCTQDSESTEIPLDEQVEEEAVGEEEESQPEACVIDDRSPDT
T5 sequence (P08588 whole entry): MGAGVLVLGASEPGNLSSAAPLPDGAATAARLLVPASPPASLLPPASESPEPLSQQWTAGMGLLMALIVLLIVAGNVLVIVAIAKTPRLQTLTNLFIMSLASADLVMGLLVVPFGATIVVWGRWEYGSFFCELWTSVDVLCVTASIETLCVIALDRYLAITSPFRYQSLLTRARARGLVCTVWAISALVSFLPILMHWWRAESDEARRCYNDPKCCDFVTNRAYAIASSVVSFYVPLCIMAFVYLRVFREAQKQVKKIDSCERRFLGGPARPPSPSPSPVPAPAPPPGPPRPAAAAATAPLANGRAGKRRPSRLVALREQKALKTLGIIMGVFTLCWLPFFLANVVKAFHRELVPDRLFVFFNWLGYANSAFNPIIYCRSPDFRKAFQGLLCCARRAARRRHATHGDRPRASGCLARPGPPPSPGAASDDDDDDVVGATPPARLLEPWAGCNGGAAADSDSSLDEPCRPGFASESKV
T10 sequence (P32238 whole entry): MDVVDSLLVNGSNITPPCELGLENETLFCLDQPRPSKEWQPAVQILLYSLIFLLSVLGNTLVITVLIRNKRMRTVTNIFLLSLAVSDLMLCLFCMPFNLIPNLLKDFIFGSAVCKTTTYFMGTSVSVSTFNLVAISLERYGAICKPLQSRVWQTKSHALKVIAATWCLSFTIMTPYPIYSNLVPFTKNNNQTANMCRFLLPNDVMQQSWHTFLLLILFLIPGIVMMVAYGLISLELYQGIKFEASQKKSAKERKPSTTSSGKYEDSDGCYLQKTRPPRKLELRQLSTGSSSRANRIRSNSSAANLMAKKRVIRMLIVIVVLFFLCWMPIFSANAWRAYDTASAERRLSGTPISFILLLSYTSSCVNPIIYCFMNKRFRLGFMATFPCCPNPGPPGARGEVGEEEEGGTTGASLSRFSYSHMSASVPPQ
T4 sequence (P28222 whole entry): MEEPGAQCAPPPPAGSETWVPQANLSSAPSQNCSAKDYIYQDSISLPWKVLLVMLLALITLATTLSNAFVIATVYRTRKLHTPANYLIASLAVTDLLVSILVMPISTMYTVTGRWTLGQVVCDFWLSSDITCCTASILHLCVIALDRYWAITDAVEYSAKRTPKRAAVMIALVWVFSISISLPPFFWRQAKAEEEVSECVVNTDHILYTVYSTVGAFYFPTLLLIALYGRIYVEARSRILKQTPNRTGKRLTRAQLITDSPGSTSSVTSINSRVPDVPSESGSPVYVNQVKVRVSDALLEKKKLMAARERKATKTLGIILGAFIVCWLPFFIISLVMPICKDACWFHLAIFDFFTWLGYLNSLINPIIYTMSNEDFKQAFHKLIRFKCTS

| Compound | pEC50 [1] | Emax ([1]; read-out: Emax relative to 5-HT, calcium flux) | number of balance beam runs per minute [2] | symptoms in subjects with Parkinson's disease ([3]; 100 mg per day) | psychotic symptoms in schizophrenia and bipolar disorder ([3]; 50-100 mg per day) | hallucinogenic effects ([3]; up to and beyond 100 mg per day, including patients with psychosis) | Emax [4] | avoidance behavior [5] | % Response ([6]; listed as (rac)-Ariadne) | % Response ([6]; listed as Ariadne) | % Response [7] | % Response [8] | combined score of DOM-like behavioral features [9] | % Response [10] | % Response [11] | % Response [12] | % Response [13] | % Response [14] | % Response [15] |
| --- | --- | --- | --- | --- | --- | --- | --- | --- | --- | --- | --- | --- | --- | --- | --- | --- | --- | --- | --- |
| CC[C@@H](N)Cc1cc(OC)c(C)cc1OC [(R)-Ariadne] | 7.52 | 96% | significantly higher and comparable to WT mice | nearly complete remission of symptoms | rapid remission of psychotic symptoms | lack of hallucinogenic effects | 60% | improved avoidance behavior | – | – | – | – | – | – | – | – | – | – | – |
| CCC(N)Cc1cc(OC)c(C)cc1OC (racemic) [Compound 32, 1-(2,5-dimethoxy-4-methylphenyl)butan-2-amine] | – | – | – | – | – | – | – | – | more than 50% | 72% | 10% | 12% | low combined score | 17% | −2% | 13% | 7% | 0% | 3% |
